Source: patent US9090593B2, “Bicyclic compounds as Pim inhibitors” (AMGEN INC., priority 2010, dated 2015)
pIC50: −log10 of the molar value.

Assays:
Format in all cases: biochemical
[1] = target: T1, full length recombinant Pim-3 protein (Homo sapiens, UniProt Q86V86); experiment: Pim-3 enzyme assay (HTRF, phosphorylation of biotinylated-BAD (S112) peptide); conditions: read-out: Pim3 IC50
T1 construct: by full length recombinant Pim-1, Pim-2, or Pim-3 protein; purchased Millipore (UK)
Source text: Pim-3 was purchased from Millipore (UK).
The phosphorylation of biotinylated-BAD (S112) peptide by full length recombinant Pim-1, Pim-2, or Pim-3 protein was detected with streptavidin:Allophycocyanin (APC) conjugate and a europium (Eu) labeled antibody directed against phosphorylated-BAD (S112). […] The fluorescence is directly proportional to the amount of phosphorylated BAD peptide present in the reaction.
A reference compound was included on each assay plate in order to validate that plate; on one plate of every assay run, two additional reference compounds were included.
The final buffer conditions were as follows: 60 mM Hepes, pH 7.0, 0.05% BSA, 2 mM DTT. […] The reaction was stopped by the addition of 3 mM EDTA, and fluorescence was measured by an HTRF® Rubystar microplate reader. For each plate, percent of control (POC) values were calculated for each well. Values for the IC50 IP were estimated using a standard 4-parameter logistic model.

[2] = target: T2, full length recombinant Pim-2 protein (Homo sapiens, UniProt Q9P1W9); experiment: Pim-2 enzyme assay (HTRF, phosphorylation of biotinylated-BAD (S112) peptide); conditions: enzyme assay, Pim-2; read-out: Pim2_IC50
T2 construct: by full length recombinant Pim-1, Pim-2, or Pim-3 protein; hexahistidine tag followed by a thrombin cleavage site (N); made in house; host or cells: Sf9 (baculovirus) or E. coli (pET28)
T2 sequence (Q9P1W9 whole entry): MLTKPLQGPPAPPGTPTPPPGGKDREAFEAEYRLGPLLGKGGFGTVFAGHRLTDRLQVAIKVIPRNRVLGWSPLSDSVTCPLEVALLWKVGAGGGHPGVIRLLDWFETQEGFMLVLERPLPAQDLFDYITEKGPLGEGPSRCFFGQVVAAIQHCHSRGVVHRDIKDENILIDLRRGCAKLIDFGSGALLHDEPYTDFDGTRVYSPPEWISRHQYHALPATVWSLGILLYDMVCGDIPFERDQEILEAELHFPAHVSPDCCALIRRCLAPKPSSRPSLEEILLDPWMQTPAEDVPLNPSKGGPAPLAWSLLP
Procedure, shortened: (§1)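 Kinase: full-length human Pim-1/Pim-2, His6-thrombin tagged. Substrate biotin-BAD (S112) peptide. Buffer 60 mM Hepes pH 7.0, 0.05% BSA, 2 mM DTT. Stop 3 mM EDTA. Detection HTRF (Eu anti-pBAD/SA-APC). IC50 by 4-parameter logistic on POC.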

[3] = target: T3, full length recombinant Pim-1 protein (Homo sapiens, UniProt P11309); experiment: Pim-1 enzyme assay (HTRF, phosphorylation of biotinylated-BAD (S112) peptide); conditions: enzyme assay, Pim-1; read-out: Pim_1_IC50
T3 construct: by full length recombinant Pim-1, Pim-2, or Pim-3 protein; hexahistidine tag followed by a thrombin cleavage site (N); made in house; host or cells: Sf9 (baculovirus) or E. coli (pET28)
T3 sequence (P11309 whole entry): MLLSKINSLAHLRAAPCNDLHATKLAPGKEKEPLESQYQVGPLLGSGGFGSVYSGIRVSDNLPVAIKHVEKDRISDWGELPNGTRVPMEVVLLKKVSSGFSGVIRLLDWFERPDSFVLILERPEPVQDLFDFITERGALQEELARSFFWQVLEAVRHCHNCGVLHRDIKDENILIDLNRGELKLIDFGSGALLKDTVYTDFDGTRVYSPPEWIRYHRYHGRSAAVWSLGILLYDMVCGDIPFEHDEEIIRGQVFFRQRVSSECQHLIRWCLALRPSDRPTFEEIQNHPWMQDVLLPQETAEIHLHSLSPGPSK
Procedure, shortened: as §1

pIC50 [1] | pIC50 [2] | pIC50 [3] | Structure (SMILES)
6.76 | 6.00 | 6.64 | COc1cncc(-c2ccc3[nH]nc(-c4cncc(OC)c4)c3c2)c1 [Example 29, 3,5-Bis(5-methoxypyridin-3-yl)-1H-indazole]
6.98 | 5.64 | 6.91 | NC1CCN(c2cncc(-c3n[nH]c4ccc(-c5c(F)cccc5F)cc34)c2)CC1 [Example 35, 1-(5-(5-(2,6-difluorophenyl)-1H-indazol-3-yl)pyridin-3-yl)piperidin-4-amine]
6.03 | < 5.52 | 6.20 | NC1CCN(c2cncc(-c3n[nH]c4ccc(N5CCCCC5=O)cc34)n2)CC1 [Example 91, 1-(3-(6-(4-amino-1-piperidinyl)-2-pyrazinyl)-1H-indazol-5-yl)-2-piperidinone]
6.93 | < 6.00 | 7.07 | Nc1cccnc1-c1ccc2[nH]nc(-c3cncc(N4CCC(N)CC4)n3)c2c1 [Example 94, 2-(3-(6-(4-amino-1-piperidinyl)-2-pyrazinyl)-1H-indazol-5-yl)-3-pyridinamine]
5.95 | < 6.00 | 6.07 | Nc1ncc(-c2ccc3[nH]nc(-c4cncc(N5CCC(N)CC5)n4)c3c2)c(NC2CCCC2)n1 [Example 96, 5-(3-(6-(4-amino-1-piperidinyl)-2-pyrazinyl)-1H-indazol-5-yl)-N~4~-cyclopentyl-2,4-pyrimidinediamine]
7.17 | 6.65 | 7.47 | Cc1c(N)cccc1-c1ccc2[nH]nc(-c3cncc(N4CCC(N)CC4)n3)c2c1 [Example 103, 1-(6-(5-(3-amino-2-methylphenyl)-1H-indazol-3-yl)-2-pyrazinyl)-4-piperidinamine]
6.56 | 6.05 | 6.30 | NC1CCN(c2cncc(-c3n[nH]c4ccc(-c5cccc6c5C5(CCOCC5)CN6)cc34)n2)CC1 [Example 106, 1-(6-(5-(1,2,2′,3′,5′,6′-hexahydrospiro[indole-3,4′-pyran]-4-yl)-1H-indazol-3-yl)-2-pyrazinyl)-4-piperidinamine]
7.17 | 6.72 | 7.52 | Nc1ccc(OC(F)(F)F)c(-c2ccc3[nH]nc(-c4cncc(N5CCC(N)CC5)n4)c3c2)c1 [Example 107, 1-(6-(5-(5-amino-2-(trifluoromethoxy)phenyl)-1H-indazol-3-yl)-2-pyrazinyl)-4-piperidinamine]
7.06 | 6.53 | 7.54 | NC1CCN(c2cncc(-c3n[nH]c4ccc(-c5ccnc6cc(OC(F)(F)F)ccc56)cc34)n2)CC1 [Example 111, 1-(6-(5-(7-(trifluoromethoxy)-4-quinolinyl)-1H-indazol-3-yl)-2-pyrazinyl)-4-piperidinamine]
6.94 | 6.28 | 7.49 | N#Cc1ccc2c(-c3ccc4[nH]nc(-c5cncc(N6CCC(N)CC6)n5)c4c3)ccnc2c1 [Example 112, 4-(3-(6-(4-amino-1-piperidinyl)-2-pyrazinyl)-1H-indazol-5-yl)-7-quinolinecarbonitrile]
7.66 | 7.59 | 7.57 | CC(C)(C)NC(=O)c1ccc(F)c(-c2ccc3[nH]nc(-c4cncc(O[C@@H]5CCCNC5)n4)c3c2)c1 [Example 116, N-tert-butyl-4-fluoro-3-(3-(6-((3R)-3-piperidinyloxy)-2-pyrazinyl)-1H-indazol-5-yl)benzamide]
7.80 | 7.10 | 7.68 | O=c1[nH]cncc1-c1ccc2[nH]nc(-c3cncc(O[C@@H]4CCCNC4)n3)c2c1 [Example 125, 5-(3-(6-((3R)-3-piperidinyloxy)-2-pyrazinyl)-1H-indazol-5-yl)-4(3H)-pyrimidinone]
7.52 | 7.23 | 7.51 | O=c1cc(-c2ccc3[nH]nc(-c4cncc(O[C@@H]5CCCNC5)n4)c3c2)c(Cl)c[nH]1 [Example 128, 5-chloro-4-(3-(6-((3R)-3-piperidinyloxy)-2-pyrazinyl)-1H-indazol-5-yl)-2(1H)-pyridinone]
8.52 | 7.52 | 8.52 | Cn1cc(-c2ccc3[nH]nc(-c4cncc(O[C@@H]5CCCNC5)n4)c3c2)cn1 [Example 129, 5-(1-methyl-1H-pyrazol-4-yl)-3-(6-((3R)-3-piperidinyloxy)-2-pyrazinyl)-1H-indazole]
7.09 | 6.64 | 7.08 | Brc1ccc2[nH]nc(-c3cncc(O[C@@H]4CCCNC4)n3)c2c1 [Example 135, 5-bromo-3-(6-((3R)-3-piperidinyloxy)-2-pyrazinyl)-1H-indazole]
7.82 | 6.79 | 7.52 | c1cc(-c2ccc3[nH]nc(-c4cncc(O[C@@H]5CCCNC5)n4)c3c2)nc(C2CC2)c1 [Example 136, 5-(6-cyclopropyl-2-pyridinyl)-3-(6-((3R)-3-piperidinyloxy)-2-pyrazinyl)-1H-indazole]
7.49 | 6.36 | 7.38 | c1cc(C2CC2)cc(-c2ccc3[nH]nc(-c4cncc(O[C@@H]5CCCNC5)n4)c3c2)n1 [Example 141, 5-(4-cyclopropyl-2-pyridinyl)-3-(6-((3R)-3-piperidinyloxy)-2-pyrazinyl)-1H-indazole]
7.59 | 6.60 | 7.57 | CC(C)Oc1cccc(-c2ccc3[nH]nc(-c4cncc(O[C@@H]5CCCNC5)n4)c3c2)n1 [Example 144, 5-(6-(1-methylethoxy)-2-pyridinyl)-3-(6-((3R)-3-piperidinyloxy)-2-pyrazinyl)-1H-indazole]
7.10 | 6.30 | 7.64 | c1cc2[nH]nc(-c3cncc(O[C@@H]4CCCNC4)n3)c2cc1-c1ccc2nncn2c1 [Example 145, 6-(3-(6-((3R)-3-piperidinyloxy)-2-pyrazinyl)-1H-indazol-5-yl)[1,2,4]triazolo[4,3-a]pyridine]
7.54 | 6.67 | 7.46 | FC(F)(F)Oc1cccc(-c2ccc3[nH]nc(-c4cncc(O[C@@H]5CCCNC5)n4)c3c2)c1 [Example 150, 3-(6-((3R)-3-piperidinyloxy)-2-pyrazinyl)-5-(3-(trifluoromethoxy)phenyl)-1H-indazole]
6.89 | 6.93 | 7.57 | c1cc2[nH]nc(-c3cncc(O[C@@H]4CCCNC4)n3)c2cc1C1CCOCC1 [Example 151, 3-(6-((3R)-3-piperidinyloxy)-2-pyrazinyl)-5-(tetrahydro-2H-pyran-4-yl)-1H-indazole]
7.57 | 6.97 | 7.44 | Oc1nccc(-c2ccc3[nH]nc(-c4cncc(O[C@@H]5CCCNC5)n4)c3c2)n1 [Example 155, 4-(3-(6-((3R)-3-piperidinyloxy)-2-pyrazinyl)-1H-indazol-5-yl)-2-pyrimidinol]
7.18 | 6.84 | 7.31 | c1cc2[nH]nc(-c3cncc(O[C@@H]4CCCNC4)n3)c2cc1C1CCCOC1 (stereo partly drawn) [Example 156, 3-(6-((3R)-3-piperidinyloxy)-2-pyrazinyl)-5-(tetrahydro-2H-pyran-3-yl)-1H-indazole]
6.73 | < 5.52 | 6.82 | Fc1cccc(F)c1-c1ccc2[nH]nc(-c3cncc(N4CCCC4)n3)c2c1 [Example 170, 5-(2,6-difluorophenyl)-3-(6-(1-pyrrolidinyl)-2-pyrazinyl)-1H-indazole]
6.82 | 5.93 | 6.77 | O[C@H]1CCN(c2cncc(-c3n[nH]c4ccc(-c5c(F)cccc5F)cc34)n2)C1 [Example 175, (3S)-1-(6-(5-(2,6-difluorophenyl)-1H-indazol-3-yl)-2-pyrazinyl)-3-pyrrolidinol]
6.91 | 6.07 | 6.77 | CNc1cncc(-c2n[nH]c3ccc(-c4c(F)cccc4F)cc23)n1 [Example 179, 6-(5-(2,6-difluorophenyl)-1H-indazol-3-yl)-N-methyl-2-pyrazinamine]
6.84 | 5.68 | 6.69 | CN(C)c1cncc(-c2n[nH]c3ccc(-c4c(F)cccc4F)cc23)n1 [Example 181, 6-(5-(2,6-difluorophenyl)-1H-indazol-3-yl)-N,N-dimethyl-2-pyrazinamine]
6.76 | 5.90 | 6.83 | CNc1nccc(-c2n[nH]c3ccc(-c4c(F)cccc4F)cc23)n1 [Example 192, 4-(5-(2,6-difluorophenyl)-1H-indazol-3-yl)-N-methyl-2-pyrimidinamine]
6.84 | 5.87 | 6.79 | CC(C)Nc1nccc(-c2n[nH]c3ccc(-c4c(F)cccc4F)cc23)n1 [Example 193, 4-(5-(2,6-difluorophenyl)-1H-indazol-3-yl)-N-(1-methylethyl)-2-pyrimidinamine]
